Test results as given in paper PMC6063804 (EJNMMI Research, 2018).
“And” between values parts separate entries of the source, which are not always exact repeats. Identical values can stand only once. Like-named read-outs stand apart in the source and are kept apart here.

Format: in vivo, human
Conditions: for activity that could not be extracted / mean parent fraction: plasma; for mean parent fraction: all 20 scans
Description: All subjects received a radial artery cannula for continuous and manual arterial sampling. For each scan, an arterial input function was obtained using an on-line blood sampler (Veenstra Instruments, Joure, The Netherlands) with a withdrawal rate of 5 mL · min^−1 during the first 5 min and 2.5 mL · min^−1 from 5 to 60 min post injection (p.i.) in order to stay within blood volume sampling constraints. Continuous blood withdrawal was interrupted briefly to manually collect arterial blood samples (10 mL each) at set timepoints (5, 10, 20, 40, 60, 75, 90, 120 min p.i.). In several subjects, an arterial sample was taken immediately before PET and incubated with [^18F]PK-209 at 37 °C to compare radioactivity recovery fractions throughout the 120 min with extracted fractions of the arterial samples taken during PET. The samples were used to measure blood and plasma radioactivity concentrations, whole blood-to-plasma ratios, and plasma metabolite fractions of [^18F]PK-209. For the latter purpose, samples were analyzed using solid-phase extraction combined with HPLC using off-line radioactivity detection.
The final arterial plasma input function was derived using both continuous and discrete arterial blood data. The input function was corrected for plasma to whole blood ratio, metabolites, and time delay. For each scan, two additional plasma input functions were generated to investigate the effect of within-subject and between-subject variability in plasma data. For the within-subject averaged input function, the mean of PET1 and PET2 [^18F]PK-209 parent fractions per subject were used at each of the eight sample timepoints for both scans. For the population-averaged input function, the mean parent fractions for all five subjects in the TRT and ketamine groups (i.e., 10 scans) were taken at each timepoint. The manual arterial blood samples were also used for assessment of the plasma ketamine concentration. The area under the ketamine concentration–time curve was estimated by means of the trapezoidal rule.
The absolute percentage TRT variability of kinetic parameters between test and retest scans was calculated using the equation TRT variability = 2 · (ρretest − ρtest)/(ρtest + ρretest) · 100, where ρ is the kinetic parameter of interest. The between-subject coefficient of variation was calculated as the standard deviation divided by the sample mean · 100. […] SUV from 90 to 120 min (SUV90–120) was calculated as the mean of the last three mid-frame SUV values.

CSc1ccc(Cl)c(NC(=N)N(C)c2cccc(OC[18F])c2)c1 [[^18F]PK-209, 3-(2-chloro-5-(methylthio)phenyl)-1-(3-([^18F]fluoromethoxy)phenyl)-1-methylguanidine]
difference in mean blood-to-plasma ratios between test–retest and between baseline–ketamine scans (all eight measured timepoints): < 3% | peak radioactivity concentration in plasma, mean SUV (arterial plasma): 17.4 ± 2.8 | plasma radioactivity as % of the peak (at 3 min): ~ 7% | fractional recovery of radioactivity from plasma (declined over time, stabilizing): approximately 45% | activity that could not be extracted (5 min p.i.): 15 ± 3% | activity that could not be extracted (120 min p.i.): 54 ± 4% | mean parent fraction (5 min p.i.): 77 ± 7% | mean parent fraction (10 min p.i.): 57 ± 9% and 57% | mean parent fraction (20 min p.i.): 34 ± 5% and 34% | mean parent fraction (60 min p.i.): 19 ± 3% | mean parent fraction (120 min p.i.): 14 ± 3% | parent fractions in baseline scans lower than the test–retest group (subjects 6 to 10, average): 16%
